Experiments:
[1] = target: Insulin-like growth factor 1 receptor (Homo sapiens, UniProt P08069); assay: Inhibition of recombinant human GST-tagged IGF1R expressed in baculovirus infected Sf9 insect cells using poly (Glu,Tyr) 4:1 as substrate after 60 mins in presence of [gamma33P]ATP by scintillation counting method
[2] = target: Epidermal growth factor receptor (Homo sapiens, UniProt P00533); assay: Inhibition of recombinant human GST-tagged wild-type EGFR expressed in baculovirus infected Sf9 insect cells using poly (Glu,Tyr) 4:1 as substrate after 60 mins in presence of [gamma33P]ATP by scintillation counting method
Sequence of Epidermal growth factor receptor (P00533 whole entry): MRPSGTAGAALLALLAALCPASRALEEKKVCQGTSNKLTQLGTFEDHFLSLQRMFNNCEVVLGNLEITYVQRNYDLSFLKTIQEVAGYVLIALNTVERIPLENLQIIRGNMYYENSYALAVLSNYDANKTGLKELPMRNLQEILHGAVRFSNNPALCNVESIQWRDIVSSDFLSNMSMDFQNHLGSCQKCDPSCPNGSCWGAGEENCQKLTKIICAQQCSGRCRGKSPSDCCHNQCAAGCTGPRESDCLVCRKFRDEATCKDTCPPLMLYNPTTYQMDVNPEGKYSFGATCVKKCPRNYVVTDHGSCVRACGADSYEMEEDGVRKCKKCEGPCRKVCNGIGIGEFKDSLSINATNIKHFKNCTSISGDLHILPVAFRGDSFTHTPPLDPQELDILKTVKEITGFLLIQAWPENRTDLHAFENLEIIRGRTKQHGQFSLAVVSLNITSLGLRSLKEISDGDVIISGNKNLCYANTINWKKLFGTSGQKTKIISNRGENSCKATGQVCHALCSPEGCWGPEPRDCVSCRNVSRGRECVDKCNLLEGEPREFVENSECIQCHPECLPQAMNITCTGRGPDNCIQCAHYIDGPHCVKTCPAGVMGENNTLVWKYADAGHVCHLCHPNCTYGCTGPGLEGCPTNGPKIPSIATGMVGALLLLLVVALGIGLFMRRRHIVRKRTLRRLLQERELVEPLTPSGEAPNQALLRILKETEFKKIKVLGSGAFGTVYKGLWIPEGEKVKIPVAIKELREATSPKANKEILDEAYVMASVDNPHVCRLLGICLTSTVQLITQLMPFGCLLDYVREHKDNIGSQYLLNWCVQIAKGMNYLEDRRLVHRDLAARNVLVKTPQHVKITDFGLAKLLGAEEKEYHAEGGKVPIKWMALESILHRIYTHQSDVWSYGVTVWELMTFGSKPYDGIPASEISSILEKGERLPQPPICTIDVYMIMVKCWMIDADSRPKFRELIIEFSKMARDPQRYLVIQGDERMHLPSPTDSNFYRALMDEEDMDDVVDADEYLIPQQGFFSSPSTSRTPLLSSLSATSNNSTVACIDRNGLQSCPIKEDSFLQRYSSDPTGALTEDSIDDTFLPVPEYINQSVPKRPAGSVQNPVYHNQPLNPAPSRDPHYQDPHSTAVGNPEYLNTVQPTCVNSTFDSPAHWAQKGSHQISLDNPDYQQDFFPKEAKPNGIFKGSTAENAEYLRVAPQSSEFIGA

Hs-578T = assay: Growth inhibition of human Hs 578T cells at 10 uM after 48 hrs by sulforhodamine B assay relative to control; assay type: functional; conditions: read-out: GI
NCI-H460 = assay: Growth inhibition of human NCI-H460 cells at 10 uM after 48 hrs by sulforhodamine B assay relative to control; assay type: functional; conditions: NCI-H460, 48 h, read-out: GI
BT-549 = assay: Growth inhibition of human BT549 cells at 10 uM after 48 hrs by sulforhodamine B assay relative to control; assay type: functional; conditions: BT-549, 48 h, read-out: GI
HOP-62 = assay: Growth inhibition of human HOP62 cells at 10 uM after 48 hrs by sulforhodamine B assay relative to control; assay type: functional; conditions: HOP-62, 48 h, read-out: GI

Sequence of Insulin-like growth factor 1 receptor (P08069 31-736 limits assumed): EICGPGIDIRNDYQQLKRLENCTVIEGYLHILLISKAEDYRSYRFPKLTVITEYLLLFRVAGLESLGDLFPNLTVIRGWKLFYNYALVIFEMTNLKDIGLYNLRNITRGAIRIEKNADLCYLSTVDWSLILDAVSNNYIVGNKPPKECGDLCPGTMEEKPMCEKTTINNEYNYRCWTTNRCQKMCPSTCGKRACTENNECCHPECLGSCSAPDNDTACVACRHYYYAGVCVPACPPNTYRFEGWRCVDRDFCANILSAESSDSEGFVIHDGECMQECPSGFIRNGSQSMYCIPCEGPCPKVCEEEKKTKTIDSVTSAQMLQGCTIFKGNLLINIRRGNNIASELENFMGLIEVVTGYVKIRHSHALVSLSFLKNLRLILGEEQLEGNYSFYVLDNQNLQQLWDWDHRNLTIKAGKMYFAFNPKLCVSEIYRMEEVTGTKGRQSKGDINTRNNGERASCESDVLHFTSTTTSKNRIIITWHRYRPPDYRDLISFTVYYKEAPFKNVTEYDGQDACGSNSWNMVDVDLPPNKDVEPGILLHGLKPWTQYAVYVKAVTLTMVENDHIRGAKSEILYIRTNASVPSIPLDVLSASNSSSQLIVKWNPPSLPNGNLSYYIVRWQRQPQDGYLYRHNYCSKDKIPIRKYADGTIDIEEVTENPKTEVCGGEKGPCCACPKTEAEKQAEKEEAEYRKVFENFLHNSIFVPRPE
Sequence of Insulin-like growth factor 1 receptor (P08069 741-1367 limits assumed): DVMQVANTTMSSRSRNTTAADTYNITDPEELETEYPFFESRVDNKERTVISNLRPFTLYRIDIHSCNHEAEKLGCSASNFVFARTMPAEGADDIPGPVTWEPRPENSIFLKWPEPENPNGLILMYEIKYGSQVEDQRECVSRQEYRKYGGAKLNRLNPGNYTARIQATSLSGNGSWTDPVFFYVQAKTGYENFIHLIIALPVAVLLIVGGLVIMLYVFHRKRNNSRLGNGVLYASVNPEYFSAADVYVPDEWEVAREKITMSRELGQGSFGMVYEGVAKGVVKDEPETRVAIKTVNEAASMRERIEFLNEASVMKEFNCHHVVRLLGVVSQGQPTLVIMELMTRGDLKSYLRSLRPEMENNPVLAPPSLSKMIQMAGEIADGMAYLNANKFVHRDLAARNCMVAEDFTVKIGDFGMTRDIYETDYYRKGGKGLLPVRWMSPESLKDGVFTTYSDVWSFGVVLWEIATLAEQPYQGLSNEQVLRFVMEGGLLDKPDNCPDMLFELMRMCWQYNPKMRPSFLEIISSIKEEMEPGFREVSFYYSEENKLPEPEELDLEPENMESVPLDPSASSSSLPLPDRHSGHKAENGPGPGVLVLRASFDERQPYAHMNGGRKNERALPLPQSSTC

Compound: COc1ccc(CNc2ccnc3oc4ccccc4c23)cc1
- Ki [1]: 1.03 µM

Compound: Nc1ccc2oc3nccc(NCc4ccc(Br)cc4)c3c2c1
- IC50 [2]: > 1000 µM
- IC50 [1]: > 1000 µM

Compound: Nc1ccc2oc3nccc(NCc4cccc(Cl)c4)c3c2c1
- Ki [2]: 0.4 µM
- Ki [1]: 4.6 µM

Compound: COc1cccc(CNc2ccnc3oc4ccc([N+](=O)[O-])cc4c23)c1
- Ki [2]: 2.74 µM
- Ki [1]: 4.56 µM

Compound: O=[N+]([O-])c1ccc2oc3nccc(NCc4cccc(Cl)c4)c3c2c1
- Ki [2]: 1.36 µM
- Ki [1]: 2.85 µM

Compound: O=[N+]([O-])c1ccc2[nH]c3nccc(NCc4cccc(Br)c4)c3c2c1
- Ki [2]: 0.11 µM
- Ki [1]: 0.32 µM

Compound: O=[N+]([O-])c1ccc2[nH]c3nccc(NCc4cccc(Cl)c4)c3c2c1
- inhibition of growth at 10 µM (Hs-578T): 82%
- inhibition of growth at 10 µM (NCI-H460): 73%
- inhibition of growth at 10 µM (BT-549): 30%
- Ki [2]: 0.08 µM
- Ki [1]: 0.28 µM
- inhibition of growth at 10 µM (HOP-62): 89%

Compound: Nc1cccc(CNc2ccnc3oc4ccc([N+](=O)[O-])cc4c23)c1
- Ki [2]: 3.59 µM
- Ki [1]: 6.18 µM

Compound: COc1cccc(CNc2ccnc3[nH]c4ccc(N)cc4c23)c1
- Ki [2]: 0.32 µM
- Ki [1]: 3.56 µM

Compound: O=[N+]([O-])c1ccc2oc3nccc(NCc4ccc(Cl)cc4)c3c2c1
- Ki [2]: 2.52 µM
- Ki [1]: 3.54 µM

Compound: O=[N+]([O-])c1ccc2oc3nccc(NCc4ccc(Br)cc4)c3c2c1
- Ki [2]: 0.81 µM
- Ki [1]: 2.87 µM

Compound: COc1cccc(CNc2ccnc3[nH]c4ccc([N+](=O)[O-])cc4c23)c1
- Ki [2]: 0.33 µM
- Ki [1]: 0.89 µM

Compound: Nc1ccc2oc3nccc(NCc4ccc(Cl)cc4)c3c2c1
- IC50 [2]: > 1000 µM
- IC50 [1]: > 1000 µM

Compound: O=[N+]([O-])c1cccc(CNc2ccnc3oc4ccc([N+](=O)[O-])cc4c23)c1
- Ki [2]: 0.93 µM
- Ki [1]: 2.39 µM

Compound: COc1cccc(CNc2ccnc3oc4ccc(N)cc4c23)c1
- inhibition of growth at 10 µM (Hs-578T): 16%
- inhibition of growth at 10 µM (NCI-H460): 29%
- inhibition of growth at 10 µM (BT-549): 43%
- Ki [2]: 0.17 µM
- Ki [1]: 0.54 µM
- inhibition of growth at 10 µM (HOP-62): 28%

Compound: COc1ccc(CNc2ccnc3oc4ccc([N+](=O)[O-])cc4c23)cc1
- Ki [2]: 2.05 µM
- Ki [1]: 3.4 µM

Compound: Nc1ccc2[nH]c3nccc(NCc4cccc(Cl)c4)c3c2c1
- Ki [2]: 0.14 µM
- Ki [1]: 1.92 µM

Compound: COc1ccc(CNc2ccnc3oc4ccc(N)cc4c23)cc1
- IC50 [2]: > 1000 µM
- IC50 [1]: > 1000 µM

Compound: Nc1cccc(CNc2ccnc3oc4ccc(N)cc4c23)c1
- Ki [2]: 0.94 µM
- Ki [1]: 8.93 µM

Compound: Nc1ccc2[nH]c3nccc(NCc4cccc(Br)c4)c3c2c1
- Ki [2]: 0.11 µM
- Ki [1]: 2.1 µM

Compound: O=[N+]([O-])c1ccc2oc3nccc(NCc4cccc(Br)c4)c3c2c1
- Ki [2]: 0.68 µM
- Ki [1]: 2.61 µM

Compound: Nc1ccc2oc3nccc(NCc4cccc(Br)c4)c3c2c1
- inhibition of growth at 10 µM (Hs-578T): 16%
- inhibition of growth at 10 µM (NCI-H460): 23%
- inhibition of growth at 10 µM (BT-549): 29%
- Ki [2]: 0.23 µM
- IC50 [1]: > 1000 µM
- inhibition of growth at 10 µM (HOP-62): 18%

Reference: ChEMBL document CHEMBL4190164 (Medchemcomm, 2016)
